# Results as given in patent US9315467B2, “Compounds for nonsense suppression, and methods for their use” (priority 2004, dated 2016).
row,SMILES,melting point
1,"Cc1ccc(-c2cc(-c3cccc(C(=O)O)c3)ncn2)cc1 [Compound 3, 3-(6-p-Tolyl-pyrimidin-4-yl)-benzoic acid]",201 to 203 °C
2,"CC(C)c1ccc(-c2nccc(-c3cccc(C(N)=O)c3)n2)cc1 [Compound 4, 3-[2-(4-Isopropyl-phenyl)-pyrimidin-4-yl]-benzamide]",167 to 169 °C
3,"Cc1ccc(-c2nccc(-c3ccc(C(=O)O)cc3)n2)cc1 [Compound 10, 4-(2-p-Tolyl-pyrimidin-4-yl)-benzoic acid]",> 310 °C
4,"Cc1ccc(-c2cc(-c3ccc(C(=O)O)cc3)ccn2)cc1 [Compound 12, 4-(2-p-Tolyl-pyridin-4-yl)-benzoic acid]",286 to 289 °C
5,"Cc1ccc(-c2ccnc(-c3ccc(C(=O)O)cc3)c2)cc1 [Compound 13, 4-(4-p-Tolyl-pyridin-2-yl)-benzoic acid]",288 to 291 °C
6,"Cc1ccc(-c2cccc(-c3ccc(C(=O)O)cc3)n2)cc1 [Compound 14, 4-(6-p-Tolyl-pyridin-2-yl)-benzoic acid]",283 to 284 °C
7,"Cc1ccc(-c2cncc(-c3ccc(C(=O)O)cc3)c2)cc1 [Compound 15, 4-(5-p-Tolyl-pyridin-3-yl)-benzoic acid]",260 to 262 °C
8,"COc1cccc(-c2nccc(-c3ccc(C(=O)O)cc3)n2)c1 [Compound 16, 4-[2-(3-Methoxy-phenyl)-pyrimidin-4-yl]-benzoic acid]",270 to 273 °C
9,"CC(C)(C)c1ccc(-c2nccc(-c3ccc(C(=O)O)cc3)n2)cc1 [Compound 17, 4-[2-(4-tert-Butyl-phenyl)-pyrimidin-4-yl]-benzoic acid]",293 to 296 °C
10,"O=C(O)c1ccc(-c2ccnc(-c3ccc(F)cc3)n2)cc1 [Compound 18, 4-[2-(4-Fluoro-phenyl)-pyrimidin-4-yl]-benzoic acid]",> 300 °C
11,"O=C(O)c1ccc(-c2ccnc(-c3cccc(OC(F)(F)F)c3)n2)cc1 [Compound 19, 4-[2-(3-Trifluoromethoxy-phenyl)-pyrimidin-4-yl]-benzoic acid]",> 300 °C
12,"O=C(O)c1ccc(-c2ccnc(-c3cccc(Cl)c3)n2)cc1 [Compound 20, 4-[2-(3-Chloro-phenyl)-pyrimidin-4-yl]-benzoic acid]",291 to 294 °C
13,"O=C(O)c1ccc(-c2ccnc(-c3ccc(C(F)(F)F)cc3)n2)cc1 [Compound 21, 4-[2-(4-Trifluoromethyl-phenyl)-pyrimidin-4-yl]-benzoic acid]",> 300 °C
14,"O=C(O)c1ccc(-c2ccnc(-c3ccc(Cl)cc3)n2)cc1 [Compound 22, 4-[2-(4-Chloro-phenyl)-pyrimidin-4-yl]-benzoic acid]",> 300 °C
15,"O=C(O)c1ccc(-c2ccnc(-c3ccccc3F)n2)cc1 [Compound 23, 4-[2-(2-Fluoro-phenyl)-pyrimidin-4-yl]-benzoic acid]",> 300 °C
16,"O=C(O)c1ccc(-c2ccnc(-c3cccc(F)c3)n2)cc1 [Compound 25, 4-[2-(3-Fluoro-phenyl)-pyrimidin-4-yl]-benzoic acid]",300 to 303 °C
17,"Cc1ccccc1-c1nccc(-c2ccc(C(=O)O)cc2)n1 [Compound 26, 4-(2-o-Tolyl-pyrimidin-4-yl)-benzoic acid]",198 to 200 °C
18,"O=C(O)c1ccc(-c2ccnc(-c3ccc(OC(F)(F)F)cc3)n2)cc1 [Compound 27, 4-[2-(4-Trifluoromethoxy-phenyl)-pyrimidin-4-yl]-benzoic acid]",299 to 302 °C
19,"O=C(O)c1ccc(-c2ccnc(-c3ccccc3)n2)cc1 [Compound 28, 4-(2-Phenyl-pyrimidin-4-yl)-benzoic acid]",> 300 °C
20,"COc1ccc(-c2nccc(-c3ccc(C(=O)O)cc3)n2)cc1 [Compound 30, 4-[2-(4-Methoxy-phenyl)-pyrimidin-4-yl]-benzoic acid]",> 300 °C
21,"O=C(O)c1ccc(-c2ccnc(-c3ccccc3C(F)(F)F)n2)cc1 [Compound 31, 4-[2-(2-Trifluoromethyl-phenyl)-pyrimidin-4-yl]-benzoic acid]",251 to 252 °C
